What was measured:
[1] = system: C6 cells (rat glioma); assay: In vitro inhibition of CHP-induced oxidative stress (DCF fluorescence) in C6 cells; assay type: cell-based; conditions: 500 µM CHP, compound 4, 20, 100 and 500 µM, 30 minutes at 37 °C, range given for both cell lines together
Procedure: (§1) The method used was essentially the one reported by Rüweler M. et al. ("Inhibition of peroxide-induced radical generation by plant polyphenols in C6 astroglioma cells" (2008) Toxicol in vitro 22, 1377-81), with a few minor modifications.
(§2) The cells were seeded in phenol-red free DMEM (Sigma Aldrich) into 96-well plates with 5% FBS and 20 mM HEPES at a density of 40,000 cells/well. After 48 hours, the medium was substituted by HBSS (Hanks' Balanced Salt Solution, Sigma) containing 10 µM of dihydro-2',7'-dichlorofluorescein diacetate (H2DCF-DA, Sigma Aldrich) and incubated in darkness for 30 minutes at 37 °C, in order to load the cells with fluorescent dye. H2DCF-DA was hydrolyzed enzymatically by the intracellular esterases to form non-fluorescent H2DCF, which was then rapidly oxidized to form 2',7'-dichlorofluorescein (DCF) being highly fluorescent in the presence of reactive species (RS). The intensity of DCF fluorescence is directly proportional to the amount of RS formed.
(§3) After carrying out two washes, the cells were exposed to 500 µM of CHP and various concentrations (4, 20, 100 and 500 µM) of the compounds of the invention for 30 minutes at 37 °C. Fluorescence was then measured, after cell washing, by a microplate reader at an excitation wavelength of 485 nm and an emission wavelength of 535 nm.
(§4) Six wells per plate per concentration of test composition (compound + CHP) and per control (HBSS without CHP) were measured and 12 wells were used as reference for CHP-induced stress. In addition, each 96-well plate contained 6 wells that received the highest concentration of the tested compounds without CHP, to investigate whether the compounds of the invention alone were able to induce cellular radical formation.
(§5) When using this assay, it should be borne in mind that DCF fluorescence is a generalized indicator of oxidative stress rather than of any particular reactive species, i.e. it is not a direct assay for H2O2 or other reactive species (Halliwell B, Whiteman M. (2004) "Measuring reactive species and oxidative damage in vivo and in cell culture: how should you do it and what do the results mean?" Br. J. Pharmacol. 142 231-255). Therefore, when an increase in DCF fluorescence induced by exposure of cells to CHP was measured, as was undertaken in these assays, it was not possible to deduce which reactive species was responsible. Inhibition of CHP-induced fluorescence was evaluated by means of different concentrations of the compounds of the invention and comparative compounds such as Trolox and edaravone.

[2] = system: BAEC cells (bovine aortic endothelial); assay: In vitro inhibition of CHP-induced oxidative stress (DCF fluorescence) in BAEC cells; assay type: cell-based; conditions: 500 µM CHP, compound 4, 20, 100 and 500 µM, 30 minutes at 37 °C, range given for both cell lines together
Procedure: as §1, §2, §3, §4, §5

[3] = TEAC method (Trolox Equivalent Antioxidant Capacity Assay); conditions: ratio of gradient to gradient of reference (trolox); 37 °C, 650 nm, pH 4.5
Excerpt: This assay is used to measure the total antioxidant activity of pure substances, biological fluids and plant compounds and is based on the reaction of antioxidants with the cation radical ABTS^˙+ (2,2'-azinobis(3-ethylbenzothiazolin-6-sulphonate)). This cation radical is metastable and has to be generated just before the experiment by reacting ABTS with hydrogen peroxide in the presence of HRP.
This radical can be reduced, with consequent loss of absorbance, by an antioxidant whose scavenging capacity can be measured spectrophotometrically at 650 nm. The test is carried out at 37 °C and the results are obtained from a comparison with Trolox (a synthetic antioxidant and hydrophilic analogue of vitamin E).
The ABTS solution S1 was prepared as follows: • 20 mg of ABTS were added to 50 mM of citric acid buffer (40 ml) at pH=4.5 and to the resulting solution there was added an aqueous solution of HRP (4.4 mg, 400 µl) and an aqueous solution of H2O2 (10 µl of a 30% solution diluted with 16.3 ml of water).
For each of the compounds (2), (6) and (7), as synthesized above, there was prepared a 600 µM solution in water, methanol or DMSO according to its solubility, as well as a Trolox solution as reference.
Each solution was diluted to produce 6 solutions each at a concentration between 25 µM and 300 µM. From each of the diluted and divided solutions, there were withdrawn 20 µl to which 200 µl of solution S1 were then added.
The decrease in absorbance of each solution thus obtained was monitored at 650 nm until a stable value was reached (about 90 minutes).
For each set of 6 solutions and for the reference trolox solution, the absorption was given in graph form as a function of the amount of compound (nmol) in the solution. The gradient of the straight line obtained by linear interpolation was determined according to the least squares method. The TEAC value of each compound of the invention is given in the table below and is expressed as the ratio between the gradient of the resulting straight line and the gradient of the reference (trolox) straight line.

[4] = system: cerebral oxidative stress induced in mice by doxorubicin; assay: In vivo assay of cerebral oxidative stress induced in mice by doxorubicin
Procedure: The assay was carried out on compounds (1) and (3)-(6) and on edaravone (E) as comparative compound.
10 mice were used for each treatment group. For each compound 50 mg/kg were administered intraperitoneally (IP) for three consecutive days (day 0, 1 and 2); half the animals (5) also received IP 16.7 mg/kg of doxorubicin immediately after the first treatment (day 0). On the day after the last administration (day 3) the animals were killed by neck dislocation and the brains were removed, weighed and frozen in liquid nitrogen.
For the analyses of oxidative stress, 100 mg/ml of brain homogenate was prepared in Hebe buffer (pH 7.4 EDTA/HEPES^(**)) containing a mixture of enzyme inhibitors (Leupeptin, Pepstatin, Aprotinin, BHA). • ^(*) Hypotonic Extraction Buffer • ^(**) 4-2-hydroxyethyl-1-piperazinyl-ethanesulphonic acid
The evaluation parameters were: • BrW/BWi: ratio between final brain weight and initial body weight (day 0); • Prot. Hmg: total proteins in the homogenate (BCA method, i.e. bicinchoninic acid); • Prot. Ox: oxidized proteins in the Hmg by means of a colorimetric method using […] (DNPH); • GSH: reduced glutathione in the supernatant (sn) of the Hmg, obtained after precipitation with metaphosphoric acid (MPA), by means of a colorimetric method using […] (DTNB); • CAT: catalase in the Hmg by a colorimetric method using potassium dichromate; • SOD: superoxide dismutase by a colorimetric method using SOD Reagent (xanthine, EDTA, nitroblue tetrazole, Na2CO3, BSA, i.e. bovine serum albumin); • GST: glutathione S-transferase in the supernatant by a colorimetric method using chlorodinitrobenzene (CDNB) and GSH; and • GPx: glutathione peroxidase in the supernatant after addition of GSH and tert butyl hydroperoxide (t-BuOOH), heating and precipitation with MPA; followed by GSH method with DTNB.
All the parameters, with the exclusion of Brain/BWi and Prot. Hmg, were normalized for total Hmg proteins (Table 3). The D value standard deviations and the % incidence relative to V are given in italics.
The mean % effect, on all the parameters simultaneously, of the triple treatment in the healthy animals, as mean percentage variation relative to the vehicle (table 4). This value is useful as an approximate safety index of the oxidative state of the brain, i.e. the capacity of the compounds of the invention not to alter cerebral homeostasis in healthy animals.
The effect of the tested compounds on the "oxidized" animals was given as % inhibition relative to the percentage variation due to doxorubicin alone. The effect of the compounds on the oxidized animals can be expressed both as a function of the values of the vehicle (healthy, vehicle only) and as a function of the value of its own control (healthy, compound only): • Vehicle: percentage [(Compound+D)/V]x100/[(V+D)/V]x100 • Its own: percentage [(Compound+D)/Compound]x100/[(V+D)/V]x100

[5] = % variation relative to the vehicle, healthy animals, 50 mg/kg IP x3 days (D = doxorubicin alone)

Q: What does the source list for `Cc1c(C)c2c(c(C)c1O)CCC(C)(C(=O)O)O2` (stereo not drawn) [Trolox, reference compound]?
A: Inhibition of CHP-induced fluorescence [1]: 10-50%; Inhibition of CHP-induced fluorescence [2]: 10-50%

Q: For `CC1=NN(c2ccccc2)C(=O)C1` [edaravone, reference compound], which TEAC [3] is on record?
A: Its TEAC is 0.9.

Q: And the “Inhibition of CHP-induced fluorescence” value [1]?
A: Its value is 10-50%.

Q: And the “Inhibition of CHP-induced fluorescence” value [2]?
A: Its value is 10-50%.

Q: And the Brain/BWi [4, 5]?
A: Its Brain/BWi is 2.7%.

Q: What about the CAT/pr [4, 5] of the same compound?
A: Its CAT/pr is -5.0%.

Q: And the GPX/pr [4, 5]?
A: The GPX/pr was -6.7%.

Q: What about the GSH/pr [4, 5] of the same compound?
A: Its GSH/pr is -5.5%.

Q: And the GST/pr [4, 5]?
A: The GST/pr was -3.1%.

Q: What about the “Prot. Hmg” value [4, 5] of the same compound?
A: Its value is 3.7%.

Q: What about the “Prot. Ox/pr” value [4, 5] of the same compound?
A: The value was -2.3%.

Q: And the SOD/pr [4, 5]?
A: The SOD/pr was -2.2%.

Q: What about the “overall inhibitory effect on the doxorubicin-induced oxidation” value ([4]; both with respect to the Vehicle and Its own) of the same compound?
A: The value was “about 75%”.

Q: And the “Mean % variation relative to the vehicle” value ([4]; healthy animals, 50 mg/kg IP days 0, 1 and 2, mean over all parameters, approximate safety index (D = doxorubicin alone), 50 mg/kg)?
A: The value was -2.7%.

Source: EP2371816A1, “Aminocyclohexenone, their preparation and use as medicament against oxidative stress” (ABIOGEN PHARMA S.p.A., priority 2010, dated 2011)
